{"source": "patent US20250057913A1", "about": "“USE OF SOMATOSTATIN AGONIST IN THE TREATMENT OF SSTR3 EXPRESSING TUMORS” (ITALFARMACO SPA, priority 2021, published 2025)", "key": {"[1]": {"tested_on": "IGF1 levels", "assay": "IGF1 levels in dogs", "type": "in vivo, dog"}, "[2]": {"target": "T1, SSTR5 (Homo sapiens, UniProt P35346)", "T1 sequence (P35346 whole entry)": "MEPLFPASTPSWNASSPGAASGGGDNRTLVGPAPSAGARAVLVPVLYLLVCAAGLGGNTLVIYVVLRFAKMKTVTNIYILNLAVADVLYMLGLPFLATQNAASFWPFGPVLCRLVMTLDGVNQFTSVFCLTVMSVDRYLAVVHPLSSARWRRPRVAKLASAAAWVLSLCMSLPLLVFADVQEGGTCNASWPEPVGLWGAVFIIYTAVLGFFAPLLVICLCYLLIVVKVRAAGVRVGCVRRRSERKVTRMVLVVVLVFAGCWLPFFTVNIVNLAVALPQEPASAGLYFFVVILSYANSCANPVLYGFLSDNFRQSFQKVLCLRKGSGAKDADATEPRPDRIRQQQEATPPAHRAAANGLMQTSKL", "source_text": "(§5) Therefore, G protein-signaling mediated by SSTR agonists was studied using a GIRK-based fluorescence membrane potential assay both in HEK293 cells transfected with hSSTR3, and in AtT20 wild-type as well as hSSTR3-transfected cells."}, "[3]": {"tested_on": "opioid receptors", "assay": "single dose binding assays on opioid receptors", "conditions": "single dose 10^−5 M"}, "[4]": {"target": "SSTR1 (Homo sapiens, UniProt P30872)", "sequence (P30872 whole entry)": "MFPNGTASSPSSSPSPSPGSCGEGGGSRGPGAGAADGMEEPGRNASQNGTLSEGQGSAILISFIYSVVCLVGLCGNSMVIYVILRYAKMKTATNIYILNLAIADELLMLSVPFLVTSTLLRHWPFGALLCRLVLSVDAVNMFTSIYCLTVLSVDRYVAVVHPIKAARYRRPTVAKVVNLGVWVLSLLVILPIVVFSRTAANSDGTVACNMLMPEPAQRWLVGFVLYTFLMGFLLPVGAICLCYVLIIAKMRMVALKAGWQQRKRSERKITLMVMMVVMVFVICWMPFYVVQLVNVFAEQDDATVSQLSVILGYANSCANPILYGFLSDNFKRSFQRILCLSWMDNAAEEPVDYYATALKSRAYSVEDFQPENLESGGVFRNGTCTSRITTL", "assay": "SSTR binding affinity (Table 1)", "text": "(§1) IC50 values are from one representative experiment. Confidence interval from 3 independent experiments (Table 1)."}, "[5]": {"target": "T1, SSTR5", "assay": "SSTR binding affinity (Table 1)", "text": "as §1"}, "[6]": {"target": "T2, SSTR3 (Homo sapiens, UniProt P32745)", "T2 sequence (P32745 whole entry)": "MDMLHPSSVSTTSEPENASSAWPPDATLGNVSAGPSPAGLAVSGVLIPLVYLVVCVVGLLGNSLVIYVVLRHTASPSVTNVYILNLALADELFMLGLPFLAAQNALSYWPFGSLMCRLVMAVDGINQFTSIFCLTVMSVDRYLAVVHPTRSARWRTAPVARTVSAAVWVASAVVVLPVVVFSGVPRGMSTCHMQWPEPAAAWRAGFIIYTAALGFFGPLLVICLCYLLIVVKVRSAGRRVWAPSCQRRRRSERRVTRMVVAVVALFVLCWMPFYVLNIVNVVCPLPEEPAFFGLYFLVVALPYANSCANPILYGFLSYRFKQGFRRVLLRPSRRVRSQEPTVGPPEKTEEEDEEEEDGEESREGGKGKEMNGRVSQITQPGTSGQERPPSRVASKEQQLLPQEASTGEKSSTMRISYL", "assay": "SSTR binding affinity (Table 1)", "text": "as §1"}, "[7]": {"target": "T3, SSTR2 (Homo sapiens, UniProt P30874)", "T3 sequence (P30874 whole entry)": "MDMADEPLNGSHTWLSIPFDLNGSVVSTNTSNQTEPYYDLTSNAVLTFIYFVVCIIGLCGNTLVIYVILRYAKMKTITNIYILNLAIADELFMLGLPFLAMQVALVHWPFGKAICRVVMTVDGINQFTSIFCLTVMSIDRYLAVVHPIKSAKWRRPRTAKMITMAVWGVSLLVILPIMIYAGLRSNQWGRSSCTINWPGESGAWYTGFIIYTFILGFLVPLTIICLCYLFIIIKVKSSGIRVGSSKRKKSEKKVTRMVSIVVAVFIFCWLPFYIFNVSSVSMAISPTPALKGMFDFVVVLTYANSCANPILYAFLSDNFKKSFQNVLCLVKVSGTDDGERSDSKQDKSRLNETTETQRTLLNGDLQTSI", "assay": "SSTR2 phosphorylation in HEK293 transfected cells (phosphosite-specific antibodies)", "type": "cell-based", "set-up": "expressed in transfected cells", "conditions": "10 or 1 μM, 10 min at 37° C.", "method": "(A) Schematic representation of the human SSTR2 receptor indicating all potential phosphate acceptor sites within the carboxyl-terminal tail. Epitopes of the phosphosite-specific antibodies are marked (-P). […] The levels of phosphorylated SSTR2 receptor were then determined using the phosphosite-specific anti-pS341/pS343, pT353/T354, pT356/T359 antibodies. […] Blots shown are representative of three independent experiments. The positions of molecular mass markers are indicated on the left (in kDa)."}, "[8]": {"target": "T2, SSTR3", "assay": "GIRK-based fluorescence membrane potential assay, HEK293-GIRK2-GFP-HA-hSST3", "source_text": "The concentrations used are indicated. […] Data points represent mean±S.E.M.\nas §5"}, "[9]": {"target": "T2, SSTR3", "assay": "SSTR3 phosphorylation in HEK293 transfected cells (phosphosite-specific antibodies)", "type": "cell-based", "set-up": "expressed in transfected cells", "conditions": "10^−12 to 10^−5 M, 10 min at 37° C.", "method": "The levels of phosphorylated SST3 receptor were then determined using the phosphosite-specific anti-pS337/pT341 or anti-pT348.\n(§2) Finally, the SSTR5 pT333 phosphosite was only partially affected by all tested compounds, with Pasireotide showing the most pronounced effect (FIG. 9B, C)."}, "[10]": {"target": "T3, SSTR2", "assay": "SSTR2 internalization in transfected HEK293 cells", "type": "cell-based", "set-up": "expressed in transfected cells", "text": "(§3) HEK293 cells transfected with human SSTRs, and U20S cells transfected with human GFP-tagged receptors (SSTR2-tGFP, SSTR3-tGFP, SSTR5-tGFP)."}, "[11]": {"target": "SSTR5-tGFP (Homo sapiens, UniProt P35346)", "sequence (P35346 whole entry)": "as the sequence (P35346 whole entry) above", "assay": "Internalization of SSTR5 in U2OS transfected cells", "type": "cell-based", "set-up": "expressed in transfected cells; host or cells: U2OS", "text": "as §3"}, "[12]": {"target": "T1, SSTR5", "assay": "SSTR5 internalization in transfected HEK293 cells", "type": "cell-based", "set-up": "expressed in transfected cells; host or cells: HEK293 co-expressing GIRK2-GFP", "text": "(§4) HEK293 cells transfected with human SSTRs, and U20S cells transfected with human GFP-tagged receptors (SSTR2-tGFP, SSTR3-tGFP, SSTR5-tGFP). SST14 and SST28 were included as reference compounds in the first and second experiments, respectively."}, "[13]": {"tested_on": "pentobarbital-induced GH release", "assay": "pentobarbital-induced GH release in rats", "type": "in vivo, rat"}, "[14]": {"target": "T3, SSTR2", "assay": "cell-based", "set-up": "expressed in transfected cells; host or cells: HEK293 co-expressing GIRK2-GFP", "source_text": "as §5"}, "[15]": {"target": "T3, SSTR2", "assay": "SSTR binding affinity (Table 1)", "set-up": "expressed in transfected cells; host or cells: HEK293 co-expressing GIRK2-GFP", "text": "as §1"}, "[16]": {"tested_on": "IGF1 levels", "assay": "IGF1 levels in rats", "type": "in vivo, rat"}, "[17]": {"target": "SSTR2-tGFP (Homo sapiens, UniProt P30874)", "sequence (P30874 whole entry)": "as the sequence (P30874 whole entry) above", "assay": "Internalization of SSTR2 in U2OS transfected cells", "type": "cell-based", "set-up": "expressed in transfected cells; host or cells: U2OS", "text": "as §3"}, "[18]": {"tested_on": "primary cultures of rat anterior pituitary cells", "assay": "Inhibition of GHRH-stimulated GH release in vitro", "type": "cell-based", "conditions": "rat anterior pituitary primary cell cultures", "text": "FIG. 4. Inhibition of GHRH-stimulated GH release in vitro using primary cultures of rat anterior pituitary cells.\nResults are expressed as mean values±SD of 3 experiments."}, "[19]": {"target": "T1, SSTR5", "assay": "SSTR5 phosphorylation in HEK293 transfected cells (anti-pT333)", "type": "cell-based", "set-up": "expressed in transfected cells", "conditions": "10 min at 37° C.", "text": "FIG. 9—Agonist-selective SSTR5 phosphorylation in HEK293 transfected cells. (A) Schematic representation of the human SSTR5 receptor indicating all potential phosphate acceptor site within the carboxyl-terminal tail. Epitope of the phosphosite-specific antibodies are marked (-P) . . . […] (C) Blots were subsequently stripped and reprobed with anti-HA antibody to confirm equal loading of the gels. Blots shown are representative of three independent experiments. The positions of molecular mass markers are indicated on the left (in kDa).\nas §2"}, "[20]": {"target": "T2, SSTR3", "assay": "SSTR3 internalization in transfected HEK293 cells (confocal microscopy)", "type": "cell-based", "set-up": "expressed in transfected cells", "conditions": "HEK293, 1 μM or 10 μM, 30 min", "text": "Cells were then fixed, stained with the anti-HA antibody and examined by confocal microscopy. Shown are representative images from one of at least three independent experiments performed in duplicate.\nas §4"}}}
{"molecule": "COc1cc2cccc(OC)c2cc1C[C@H]1NC(=O)[C@H](Cc2ccc(O)cc2)NC(=O)[C@@H]2C[C@@H](OC(=O)NCCN)CN2C(=O)[C@H](Cc2ccccc2)NC(=O)[C@H](Cc2ccc(OCc3ccccc3)cc2)NC(=O)[C@H](CCCCN)NC1=O", "note": "[ITF2984, (3S,6R,9S,12S,15S,19R,20aS)-9-(4-aminobutyl)-15-benzyl-12-(4-(benzyloxy)benzyl)-6-((3,8-dimethoxynaphthalen-2-yl)methyl)-3-(4-hydroxybenzyl)-1,4,7,10,13,16-hexaoxoicosahydropyrrolo[1,2-a][1,4,7,10,13,16]hexaazacyclooctadecin-19-yl (2-aminoethyl)carbamate]", "values": [{"measurement": "IGF1 levels", "setting": "[1]", "result": "decreased IGF1 levels"}, {"measurement": "EC50", "setting": "[2]", "result": "95.1 ± 15.2", "unit": "nM"}, {"measurement": "replacement of agonists", "setting": "[3]", "result": "fully replace agonists"}, {"measurement": "affinity compared to octreotide", "setting": "[4]", "result": "higher affinity"}, {"measurement": "IC50", "setting": "[5]", "result": "nanomolar range"}, {"measurement": "affinity compared to octreotide", "setting": "[5]; compared to octreotide", "result": "higher affinity"}, {"measurement": "IC50", "setting": "[6]", "result": "nanomolar range"}, {"measurement": "affinity compared to octreotide", "setting": "[6]; compared to octreotide", "result": "higher affinity"}, {"measurement": "phosphorylation of SSTR2 (pS341/pS343, pT353/T354, pT356/T359)", "setting": "[7]", "result": "selective phosphorylation of S341/S343"}, {"measurement": "EC50", "setting": "[8]", "result": "10.7 ± 1.7", "unit": "nM"}, {"measurement": "G-protein signaling potency at SSTR3 versus Octreotide or Pasireotide", "setting": "[8]; more potent than Octreotide or Pasireotide", "result": "about 5 times"}, {"measurement": "phosphorylation of SSTR3 (pS337/pT341, pT348)", "setting": "[9]", "result": "full phosphorylation"}, {"measurement": "internalization of SSTR2", "setting": "[10]", "result": "only a partial internalization"}, {"measurement": "Mean of internalized fluorescence, SSTR5", "setting": "[11]; 1 μM", "result": 34.6, "unit": "AU"}, {"measurement": "Mean of internalized fluorescence, SSTR5", "setting": "[11]; 10 μM", "result": 42.0, "unit": "AU"}, {"measurement": "internalization of SSTR5", "setting": "[12]", "result": "only a partial internalization"}, {"measurement": "pentobarbital-induced GH release", "setting": "[13]", "result": "inhibited pentobarbital-induced GH release"}, {"measurement": "EC50", "setting": "[14]", "result": "312 ± 29.3", "unit": "nM"}, {"measurement": "IC50", "setting": "[15]", "result": "nanomolar range"}, {"measurement": "affinity compared to octreotide", "setting": "[15]; compared to octreotide", "result": "lower affinity"}, {"measurement": "IGF1 levels", "setting": "[16]", "result": "decreased IGF1 levels"}, {"measurement": "Mean of internalized fluorescence, SSTR2", "setting": "[17]; 1 μM", "result": 37.3, "unit": "AU"}, {"measurement": "Mean of internalized fluorescence, SSTR2", "setting": "[17]; 10 μM", "result": 35.9, "unit": "AU"}, {"measurement": "inhibition of GH release", "setting": "[18]", "result": "potently inhibited GH release"}, {"measurement": "phosphorylation of SSTR5 (pT333)", "setting": "[19]", "result": "partial phosphorylation"}, {"measurement": "internalization of SSTR3", "setting": "[20]", "result": "strong internalization"}]}
